Experiment [1] deals with T1, tcTERT (Tribolium castaneum, UniProt Q0QHL8). In words: Pre-steady-state single-turnover kinetics of tcTERT single nucleotide insertion. Format: biochemical. Details: tcTERT kobs: unit not given here. The settings on record: for Fold change: catalytic efficiency relative to dGTP. An excerpt:
In order to better understand the ability of modified dNTPs to compete with natural dNTPs for telomerase utilization, we added modified dNTPs to reactions containing all four natural dNTPs. […] The calculated IC50 determines the concentration required to reduce repeat processivity in the bulk reactions by half. However, it is important to note that bulk experiments cannot distinguish effects on individual telomeres, since extended telomeres mask unextended telomeres. Incorporation of a chain terminator during any step will terminate extension of the affected telomere, and just five critically short telomeres are sufficient to trigger senescence. Therefore, repeat processivity IC50 values are not necessarily an indicator of the inhibitory potency, but provide information on selectivity for modified dNTPs compared to natural dNTPs. […] The ability to purify sufficient quantities of tcTERT enables characterization of the catalytic nucleotide addition by pre-steady-state single turnover kinetics using a defined DNA–RNA primer–template substrate. The catalytic efficiency of incorporating a single dNTP is measured by dividing the observed nucleotide incorporation rate constant, kpol, by the equilibrium dissociation constant for dNTP binding to the tcTERT–primer–template complex (Kd)[44].
Pre-steady-state kinetic parameters of tcTERT were obtained using established pre-steady-state kinetics protocols for DNA polymerases, also known as single turnover kinetics[70],[71]. Briefly, we preincubated 2 μM tcTERT with 200 nM annealed DNA:RNA hybrid substrate, with a 6-FAM label on the 5′ end of the DNA component. We then used a KinTek RQF-3 (a rapid quench-flow instrument) to mix equal ratios of the incoming nucleotide triphosphate and 10 mM MgCl2 with the existing mix of tcTERT and its DNA:RNA hybrid substrate. Reactions were run at 37 °C and quenched at various timepoints with 100 mM EDTA pH 7.5. […] After each reaction, the samples were transferred to a DNA gel loading buffer, containing 100 mM EDTA, 80% deionized formamide, 0.25 mg ml^−1 bromophenol blue, and 0.25 mg ml^−1 xylene cyanol. These mixes were then incubated at 95 °C for 5 min, and loaded onto a 21% denaturing polyacrylamide gel. These gels were run at 700 V, […], and 30 W at 30 °C in order to separate the reaction product from its substrate.
Means and standard deviations from at least three independent replicates were calculated, and graphed using KaleidaGraph version 4.5.2. Plots of product formation over time were fit to the exponential equation (1) to determine kobs values:1 P=A(1−e^−kobst).
In which [P] is the concentration of the product, A is the target engagement (amplitude), and t is the reaction time. After kobs values were determined for multiple nucleotide triphosphate concentrations, the data was replot to compare kobs to concentration of nucleotide triphosphate, and fit to Eq. (2):2 kobs=kpol[NTP]/Kd+[NTP]. with kpol representing the theoretical maximum value of kobs, and [NTP] representing the concentration of the nucleotide of interest.

In a further experiment the target is polymerase β (Homo sapiens, UniProt P06746). In words: Polymerase β dGTP run-on assay. The class given is biochemical. As to conditions: 50 or 200 μM dGTP. The procedure: These mixes were then incubated at 95 °C for 5 min, and loaded onto a 21% denaturing polyacrylamide gel. These gels were run at 700 V, […], and 30 W at 30 °C in order to separate the reaction product from its substrate.
Supplementary Fig 4. Time course reactions with telomerase or pol β. (a, b) Telomerase reactions were conducted with 5 nM 32P-end labeled primer (a) Primer 4 (GTTAGG)3 or (b) Primer 2 (GGTTAG)3.
Products were separated on denaturing gels. Letters on the right indicate the template base; P indicates unextended 18-mer primer. Graphs represent the percent primer extended for the reactions in panels a and b from one experiment. ( c, d) Primer extension by human polymerase b. The double stranded 6- […]
reactions were run on denaturing gels and imaged using a Typhoon phosphoimager. P indicates unextended 13-mer primer from three independent experiments. Source data are provided as a Source […]

In experiment [2] the target is T1, tcTERT. As to conditions: cited from earlier work.
The mark [3] stands for this setting: dNTP binding to tcTERT-primer-template complex.

The source of these data is publication PMC7576608, “Mechanisms of telomerase inhibition by oxidized and therapeutic dNTPs” (Nature Communications, 2020).

Values joined by “and” are separate entries in the source; they are usually repeats but may differ in a detail not shown here. Identical values can stand only once. Like-named read-outs stand apart in the source and are kept apart here.

T1 sequence (Q0QHL8 entry or part of it): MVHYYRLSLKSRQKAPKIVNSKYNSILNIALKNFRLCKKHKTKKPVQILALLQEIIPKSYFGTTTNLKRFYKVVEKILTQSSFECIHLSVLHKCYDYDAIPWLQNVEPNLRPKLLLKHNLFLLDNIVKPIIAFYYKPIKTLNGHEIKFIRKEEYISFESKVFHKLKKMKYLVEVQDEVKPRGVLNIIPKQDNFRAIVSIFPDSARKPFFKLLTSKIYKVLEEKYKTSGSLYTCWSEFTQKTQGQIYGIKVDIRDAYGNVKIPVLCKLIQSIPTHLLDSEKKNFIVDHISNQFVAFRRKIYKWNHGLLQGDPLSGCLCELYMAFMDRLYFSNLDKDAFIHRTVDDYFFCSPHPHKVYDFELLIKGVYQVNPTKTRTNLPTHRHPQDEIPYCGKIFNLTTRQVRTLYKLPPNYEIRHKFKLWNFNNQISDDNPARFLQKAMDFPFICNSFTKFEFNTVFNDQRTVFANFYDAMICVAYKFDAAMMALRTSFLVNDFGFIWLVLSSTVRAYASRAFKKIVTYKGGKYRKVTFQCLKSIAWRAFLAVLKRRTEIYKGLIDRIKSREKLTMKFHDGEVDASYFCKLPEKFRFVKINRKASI

Turning to `Nc1nc2c(ncn2C2CC(O)C(COP(=O)(O)OP(=O)(O)OP(=O)(O)O)O2)c(=S)[nH]1` (stereo not shown) [6-thio-dGTP], the tcTERT kobs on tcTERT [1] ([6-thio-dGTP] 0.5 uM, Mean) is 0.024; at tcTERT [1] ([6-thio-dGTP] 0.5 uM, single replicates), 0.020 and 0.017 and 0.037; on tcTERT [1] ([6-thio-dGTP] 1 uM, Mean) it was 0.036; on tcTERT [1] ([6-thio-dGTP] 1 uM, single replicates), 0.046 and 0.026 and 0.035; on tcTERT [1] ([6-thio-dGTP] 3 uM, Mean) it was 0.084; on tcTERT [1] ([6-thio-dGTP] 3 uM, single replicates), 0.093 and 0.083 and 0.076. The tcTERT kobs was 0.142 at tcTERT [1] ([6-thio-dGTP] 5 uM, Mean); 0.256 and 0.136 and 0.070 and 0.105 on tcTERT [1] ([6-thio-dGTP] 5 uM, single replicates); 0.143 at tcTERT [1] ([6-thio-dGTP] 7 uM, Mean); 0.232 and 0.073 and 0.125 at tcTERT [1] ([6-thio-dGTP] 7 uM, single replicates); 0.239 on tcTERT [1] ([6-thio-dGTP] 10 uM, Mean); 0.389 and 0.333 and 0.126 and 0.109 on tcTERT [1] ([6-thio-dGTP] 10 uM, single replicates). Besides, the tcTERT kobs on tcTERT [1] ([6-thio-dGTP] 15 uM, Mean) is 0.330; at tcTERT [1] ([6-thio-dGTP] 15 uM, single replicates), 0.523 and 0.151 and 0.314; at tcTERT [1] ([6-thio-dGTP] 20 uM, Mean), 0.552; at tcTERT [1] ([6-thio-dGTP] 20 uM, single replicates) it was 0.535 and 0.464 and 0.603 and 0.606; on tcTERT [1] ([6-thio-dGTP] 25 uM, Mean), 0.632; at tcTERT [1] ([6-thio-dGTP] 25 uM, single replicates) it was 0.411 and 0.737 and 0.749. In addition, the tcTERT kobs was 0.951 on tcTERT [1] ([6-thio-dGTP] 40 uM, Mean); 0.795 and 1.041 and 1.018 at tcTERT [1] ([6-thio-dGTP] 40 uM, single replicates); 1.139 on tcTERT [1] ([6-thio-dGTP] 50 uM, Mean); 1.051 and 1.270 and 1.096 on tcTERT [1] ([6-thio-dGTP] 50 uM, single replicates); 1.424 at tcTERT [1] ([6-thio-dGTP] 75 uM, Mean); 1.281 and 1.438 and 1.554 at tcTERT [1] ([6-thio-dGTP] 75 uM, single replicates). Also, the tcTERT kobs was 1.760 at tcTERT [1] ([6-thio-dGTP] 100 uM, Mean); 1.806 and 1.680 and 1.793 at tcTERT [1] ([6-thio-dGTP] 100 uM, single replicates); 1.896 on tcTERT [1] ([6-thio-dGTP] 150 uM, Mean); 1.870 and 2.039 and 1.778 at tcTERT [1] ([6-thio-dGTP] 150 uM, single replicates). On tcTERT [1], this compound yielded a Fold change of 0.579. Binding at tcTERT [1] (setting [3]) was characterised by a dissociation constant (Kd) of 92.4 ± 12.9 µM. Also, the kpol on tcTERT [1] (single nucleotide insertion, 37 °C) was found to be 3.1 ± 0.23 s⁻¹.
As for `Nc1nc2c(ncn2C2CC(O)C(COP(=O)(O)OP(=O)(O)OP(=O)(O)O)O2)c(=O)[nH]1` (stereo not shown) [dGTP], on tcTERT [1], the “Fold higher catalytic efficiency of dGTP compared to 6-thio-dGTP” value amounted to 2 fold and the Fold change is 1.000. The “Laddering or misincorporation by DNA polymerase β (in words)” value on polymerase β is reported as “no evidence of dGTP laddering or misincorporation opposite template A”. Moreover, the Kd (as a rule, a measure of binding affinity in units of concentration) at tcTERT [2] (setting [3]) is 18.1 ± 3.78 µM. Besides, at tcTERT [2] (single nucleotide insertion), the “Catalytic efficiency (kpol/Kd)” value was 58000 ± 12000 M⁻¹ s⁻¹ and the kpol is 1.1 ± 0.03 s⁻¹.
